Patent US6497886B1, “1,3-bis-(N-lactamyl) propane and the pharmaceutical and cosmetic use thereof” (BASF Aktiengesellschaft, priority 1996, dated 2002)
In brackets after ≈: the same amount, converted by molar mass.

Experiments:
[1] = Saturation solubility of active ingredients in 1,3-bis(1-pyrrolidonyl)butane as solvent (Example 5); type: physicochemical; conditions: 22 °C, organic solvent or mixture, thermodynamic from solid, stirred at room temperature for 72 hours, filtrate by UV photometry, read-out: maximum solubility at 22° C.
Procedure: It was stirred at room temperature for 72 hours.

[2] = Maximum soluble amount of active ingredient in cosolvent:water mixtures and phosphate buffer (Example 6); conditions: for cosolvent quality mixed with water compared with propylene glycol: for hydrophilic active ingredients such as paracetamol, theophylline or trimethoprim
Procedure: To 20 ml 1,3-bis(1-pyrrolidonyl)butane was added the active ingredient in an amount which is above the amount of this active ingredient able to dissolve in this volume. It was stirred at room temperature for 72 hours. As a rule, this time ensured that the saturation solubility in the medium was reached. After subsequent filtration, the content of active ingredient in the filtrate was determined by UV photometry.
e) 1,2-Propylene glycol (1,2-PG):water (1:1)
f) 1,2-Propylene glycol (1,2-PG):water (1:3)

[3] = cited from earlier work
[4] = 25% 1,2-PG (1,2-propylene glycol:water 1:3), 20 ml
[5] = 25% DHVC (1,3-bis(1-caprolactamyl)butane:water 1:3), 20 ml
[6] = 25% DHVP (1,3-bis(1-pyrrolidonyl)butane:water 1:3), 20 ml
[7] = 50% 1,2-PG (1,2-propylene glycol:water 1:1), 20 ml
[8] = 50% DHVC (1,3-bis(1-caprolactamyl)butane:water 1:1), 20 ml
[9] = 50% DHVP (1,3-bis(1-pyrrolidonyl)butane:water 1:1), 20 ml
[10] = in 20 ml 25% 1,2-PG (1,2-propylene glycol:water 1:3)
[11] = in 20 ml 25% DHVC (1,3-bis(1-caprolactamyl)butane:water 1:3)
[12] = in 20 ml 25% DHVP (1,3-bis(1-pyrrolidonyl)butane:water 1:3)
[13] = in 20 ml 50% 1,2-PG (1,2-propylene glycol:water 1:1)
[14] = in 20 ml 50% DHVC (1,3-bis(1-caprolactamyl)butane:water 1:1)
[15] = in 20 ml 50% DHVP (1,3-bis(1-pyrrolidonyl)butane:water 1:1)
[16] = in 20 ml phosphate buffer pH 7.0

Row | solubility at 72 h [1] [mg/mL] | Solubility [%] [2, 4] [%] | Solubility [%] [2, 6] [%] | Solubility [%] [2, 7] [%] | Solubility [%] [2, 9] [%] | Solubility [%] ([2]; Phosphate buffer pH 7.0, 20 ml) | Dissolved substance [2, 10] [g] | Dissolved substance [2, 12] [g] | Dissolved substance [2, 13] [g] | Dissolved substance [2, 15] [g] | Dissolved substance [2, 16] [g] | SMILES | other results
1 | 200 (≈ 783 mM) | – | – | – | – | – | – | – | – | – | – | Nc1ccc(S(=O)(=O)Nc2nccs2)cc1 [Sulfathiazole] | –
2 | 150 (≈ 517 mM) | 0.28 | 1.03 | 0.89 | 3.55 | 0.12 | 0.0558 | 0.2063 | 0.1785 | 0.7097 | 0.0245 | COc1cc(Cc2cnc(N)nc2N)cc(OC)c1OC [Trimethoprim] | Solubility [%] [2, 5]: 1.69%; Solubility [%] [2, 8]: 5.09%; Dissolved substance [2, 11]: 0.3382 g; Dissolved substance [2, 14]: 1.0170 g
3 | – | – | – | – | – | – | – | – | – | – | – | CC(O)CO (stereo not drawn) [propylene glycol] | miscibility/solubility with fixed oils [3]: immiscible
4 | – | – | – | – | – | – | – | – | – | – | – | CC(CCN1CCCCCC1=O)N1CCCCCC1=O (stereo not drawn) [Example 4, 1,3-Bis-(1-caprolactamyl)Butane] | cosolvent quality mixed with water compared with propylene glycol [2]: better cosolvents
5 | 200 (≈ 558 mM) | – | – | – | – | – | – | – | – | – | – | C[C@]12C=CC(=O)C=C1CC[C@@H]1[C@@H]2C(=O)C[C@@]2(C)[C@H]1CC[C@]2(O)C(=O)CO [Prednisone] | –
6 | 250 (≈ 1650 mM) | 2.77 | 10.62 | 6.46 | 25.15 | 1.36 | 0.5537 | 2.1244 | 1.2914 | 5.0298 | 0.2718 | CC(=O)Nc1ccc(O)cc1 [Paracetamol] | –
7 | – | – | – | – | – | – | – | – | – | – | – | OCC(O)CO [glycerol] | miscibility/solubility with fixed oils [3]: not soluble; miscibility with water ([3]; water): miscible
8 | – | – | – | – | – | – | – | – | – | – | – | CC(CCN1CCCC1=O)N1CCCC1=O (stereo not drawn) [Example 2, 1,3-Bis-(1-pyrrolidonyl)Butane] | cosolvent quality mixed with water compared with propylene glycol [2]: better cosolvents
9 | 190 (≈ 673 mM) | – | – | – | – | – | – | – | – | – | – | CCS(=O)(=O)Oc1ccc2c(C)c(C)c(=O)oc2c1 [Esuprone] | –

Row | SMILES | solubility at 72 h [1] [mg/mL] | Solubility [%] [2, 4] [%] | Solubility [%] [2, 6] [%] | Solubility [%] [2, 7] [%] | Solubility [%] [2, 9] [%] | Solubility [%] ([2]; Phosphate buffer pH 7.0, 20 ml) | Dissolved substance [2, 10] [g] | Dissolved substance [2, 12] [g] | Dissolved substance [2, 13] [g] | Dissolved substance [2, 15] [g] | Dissolved substance [2, 16] [g] | other results
10 | Cn1c(=O)c2[nH]cnc2n(C)c1=O [theophylline] | – | 1.00 | 1.30 | 1.54 | 1.85 | 0.59 | 0.1998 | 0.2609 | 0.3083 | 0.3703 | 0.1172 | Solubility [%] [2, 5]: 1.55%; Solubility [%] [2, 8]: 2.74%; Dissolved substance [2, 11]: 0.3105 g; Dissolved substance [2, 14]: 0.5476 g
